Test results from PubChem BioAssay (NCI).
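How tested: cells in 96-well plates exposed to compound for 48 hours at five concentrations. GI50 = concentration required for 50% inhibition of growth. At the TGI there is no net growth.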

Experiments:
Experiment in all cases: inhibition of tumour cell growth, NCI panel, 48 h
[1] = test system: OVCAR-8 ovarian
[2] = test system: ACHN renal
[3] = test system: OVCAR-4 ovarian
[4] = test system: SN12C renal
[5] = test system: HOP-92 NSCLC
[6] = test system: SK-MEL-5 melanoma
[7] = test system: SW-620 colon
[8] = test system: UACC-62 melanoma
[9] = test system: IGROV1 ovarian
[10] = test system: NCI/ADR-RES ovarian
[11] = test system: OVCAR-5 ovarian
[12] = test system: MDA-MB-231 breast
[13] = test system: SK-MEL-28 melanoma
[14] = test system: 786-0 renal
[15] = test system: SF-268 CNS
[16] = test system: EKVX NSCLC
[17] = test system: U251 CNS
[18] = test system: RXF 393 renal
[19] = test system: NCI-H522 lung
[20] = test system: A549 NSCLC
[21] = test system: HT29 colon
[22] = test system: PC-3 prostate
[23] = test system: SR leukemia
[24] = test system: SK-MEL-2 melanoma
[25] = test system: OVCAR-3 ovarian
[26] = test system: HS 578T breast
[27] = test system: NCI-H460 lung
[28] = test system: HCC-2998 colon
[29] = test system: LOX IMVI melanoma
[30] = test system: UO-31 renal
[31] = test system: M14 melanoma
[32] = test system: HL-60(TB) leukemia
[33] = test system: SNB-75 CNS
[34] = test system: MALME-3M melanoma
[35] = test system: MDA-MB-435
[36] = test system: NCI-H226 lung
[37] = test system: CCRF-CEM leukemia
[38] = test system: DU-145 prostate
[39] = test system: CAKI-1 renal
[40] = test system: NCI-H23 lung
[41] = test system: COLO 205 colon
[42] = test system: T-47D breast
[43] = test system: UACC-257 melanoma
[44] = test system: HOP-62 NSCLC
[45] = test system: BT-549 breast
[46] = test system: MCF7 breast
[47] = test system: SK-OV-3 ovarian
[48] = test system: TK-10 renal
[49] = test system: HCT-116 colon
[50] = test system: MOLT-4 leukemia
[51] = test system: SNB-19 CNS
[52] = test system: HCT-15 colon
[53] = test system: RPMI-8226 leukemia
[54] = test system: K-562 leukemia
[55] = test system: SF-539 CNS
[56] = test system: A498 renal
[57] = test system: KM12 colon
[58] = test system: SF-295 CNS

N#Cc1c(N2CCOCC2)nc(=S)[nH]c1-c1ccccc1
GI50 [1]: 39.2 µM | TGI [1]: > 100 µM | GI50 [2]: 14.1 µM | TGI [2]: > 100 µM | GI50 [3]: 65.7 µM | TGI [3]: > 100 µM | GI50 [4]: 19 µM | TGI [4]: > 100 µM | GI50 [5]: 3.94 µM | TGI [5]: > 100 µM | GI50 [6]: 9.36 µM | TGI [6]: > 100 µM | GI50 [7]: 74.2 µM | TGI [7]: > 100 µM | GI50 [8]: 4.95 µM | TGI [8]: > 100 µM | GI50 [9]: 3.15 µM | TGI [9]: > 100 µM | GI50 [10]: 53.4 µM | TGI [10]: > 100 µM | GI50 [11]: 18.3 µM | TGI [11]: > 100 µM | GI50 [12]: 7.86 µM | TGI [12]: > 100 µM | GI50 [13]: 20.5 µM | TGI [13]: > 100 µM | GI50 [14]: 14.1 µM | TGI [14]: > 100 µM | GI50 [15]: 33.5 µM | TGI [15]: > 100 µM | GI50 [16]: 20.2 µM | TGI [16]: > 100 µM | GI50 [17]: 60.1 µM | TGI [17]: > 100 µM | GI50 [18]: 21 µM | TGI [18]: > 100 µM | GI50 [19]: 13.8 µM | TGI [19]: > 100 µM | GI50 [20]: 21.3 µM | TGI [20]: > 100 µM | GI50 [21]: 33.5 µM | TGI [21]: > 100 µM | GI50 [22]: 2.1 µM | TGI [22]: 8.79 µM | GI50 [23]: 29 µM | TGI [23]: > 100 µM | GI50 [24]: 4.5 µM | TGI [24]: > 100 µM | GI50 [25]: 16.9 µM | TGI [25]: > 100 µM | GI50 [26]: 7.65 µM | TGI [26]: 60.7 µM | GI50 [27]: 9.57 µM | TGI [27]: > 100 µM | GI50 [28]: 77.2 µM | TGI [28]: > 100 µM | GI50 [29]: 23.5 µM | TGI [29]: > 100 µM | GI50 [30]: 4.57 µM | TGI [30]: > 100 µM | GI50 [31]: 19.9 µM | TGI [31]: > 100 µM | GI50 [32]: 15.3 µM | TGI [32]: > 100 µM | GI50 [33]: 6.12 µM | TGI [33]: > 100 µM | GI50 [34]: 5.19 µM | TGI [34]: 58.9 µM | GI50 [35]: 29.7 µM | TGI [35]: > 100 µM | GI50 [36]: 14.3 µM | TGI [36]: > 100 µM | GI50 [37]: 30.9 µM | TGI [37]: > 100 µM | GI50 [38]: 31 µM | TGI [38]: > 100 µM | GI50 [39]: 9.29 µM | TGI [39]: > 100 µM | GI50 [40]: 34.5 µM | TGI [40]: > 100 µM | GI50 [41]: 19 µM | TGI [41]: > 100 µM | GI50 [42]: 4.15 µM | TGI [42]: > 100 µM | GI50 [43]: 49.8 µM | TGI [43]: > 100 µM | GI50 [44]: 7.93 µM | TGI [44]: 68.1 µM | GI50 [45]: 8.78 µM | TGI [45]: > 100 µM | GI50 [46]: 4.89 µM | TGI [46]: > 100 µM | GI50 [47]: 8.48 µM | TGI [47]: 98.6 µM | GI50 [48]: 20.7 µM | TGI [48]: > 100 µM | GI50 [49]: 42.4 µM | TGI [49]: > 100 µM | GI50 [50]: 10.7 µM | TGI [50]: > 100 µM | GI50 [51]: 89.9 µM | TGI [51]: > 100 µM | GI50 [52]: 24.9 µM | TGI [52]: > 100 µM | GI50 [53]: 13.3 µM | TGI [53]: > 100 µM | GI50 [54]: 52 µM | TGI [54]: > 100 µM | GI50 [55]: 13.2 µM | TGI [55]: > 100 µM | GI50 [56]: 3.66 µM | TGI [56]: 26.8 µM | GI50 [57]: 35 µM | TGI [57]: > 100 µM

O=C(/C(=C/c1ccc([N+](=O)[O-])cc1)SCc1ccc(Cl)cc1)c1ccc(F)cc1
GI50 [1]: 3.17 µM | TGI [1]: 12.7 µM | GI50 [2]: 1.76 µM | TGI [2]: 3.33 µM | GI50 [3]: 3.11 µM | TGI [3]: 13.9 µM | GI50 [4]: 2.4 µM | TGI [4]: 7.43 µM | GI50 [5]: 10.2 µM | TGI [5]: 34 µM | GI50 [6]: 2.85 µM | TGI [6]: 8.87 µM | GI50 [7]: 1.71 µM | TGI [7]: 4.91 µM | GI50 [8]: 2.27 µM | TGI [8]: 8.47 µM | GI50 [9]: 3.93 µM | TGI [9]: 22.3 µM | GI50 [10]: 2.78 µM | TGI [10]: 11.2 µM | GI50 [11]: 3 µM | TGI [11]: 12.1 µM | GI50 [12]: 2.14 µM | TGI [12]: 5.98 µM | GI50 [13]: 4.26 µM | TGI [13]: 16.2 µM | GI50 [14]: 2.66 µM | TGI [14]: 7.9 µM | GI50 [15]: 4.95 µM | TGI [15]: 21.6 µM | GI50 [16]: 3.78 µM | TGI [16]: 15.2 µM | GI50 [17]: 1.74 µM | TGI [17]: 3.17 µM | GI50 [18]: 5.75 µM | TGI [18]: 18.3 µM | GI50 [19]: 1.84 µM | TGI [19]: 3.76 µM | GI50 [20]: 49.5 µM | TGI [20]: > 100 µM | GI50 [21]: 2 µM | TGI [21]: 4.12 µM | GI50 [22]: 2.12 µM | TGI [22]: 5.74 µM | GI50 [23]: 2.01 µM | TGI [23]: > 26.5 µM | GI50 [24]: 7.9 µM | TGI [24]: 23.1 µM | GI50 [25]: 2.2 µM | TGI [25]: 5.13 µM | GI50 [26]: 2.42 µM | TGI [26]: 7.68 µM | GI50 [27]: 5.79 µM | TGI [27]: 24.7 µM | GI50 [28]: 2.39 µM | TGI [28]: 5.41 µM | GI50 [29]: 1.63 µM | TGI [29]: 3.1 µM | GI50 [30]: 1.96 µM | TGI [30]: 13.6 µM | GI50 [31]: 3.38 µM | TGI [31]: 16.1 µM | GI50 [32]: 2.82 µM | TGI [32]: 11.1 µM | GI50 [33]: 16.1 µM | TGI [33]: 65.6 µM | GI50 [34]: 3.22 µM | TGI [34]: 12.3 µM | GI50 [35]: 2.23 µM | TGI [35]: 5.87 µM | GI50 [36]: 9.67 µM | TGI [36]: > 41.6 µM | GI50 [37]: 1.97 µM | TGI [37]: > 100 µM | GI50 [38]: 13.8 µM | TGI [38]: > 57.3 µM | GI50 [40]: 3.92 µM | TGI [40]: 21.9 µM | GI50 [41]: 3.8 µM | TGI [41]: 14.9 µM | GI50 [42]: 4.32 µM | TGI [42]: 19.3 µM | GI50 [43]: 11.5 µM | TGI [43]: 26.1 µM | GI50 [44]: 13.1 µM | TGI [44]: 35.4 µM | GI50 [58]: 4.02 µM | TGI [58]: 14.4 µM | GI50 [45]: 2.06 µM | TGI [45]: 4.56 µM | GI50 [46]: 1.56 µM | TGI [46]: 4.78 µM | GI50 [47]: 16.6 µM | TGI [47]: 63.5 µM | GI50 [48]: 12.9 µM | TGI [48]: 29.5 µM | GI50 [49]: 1.39 µM | TGI [49]: 2.92 µM | GI50 [50]: 2.83 µM | TGI [50]: > 100 µM | GI50 [51]: 1.87 µM | TGI [51]: 4.11 µM | GI50 [52]: 1.9 µM | TGI [52]: 4.26 µM | GI50 [53]: 0.81 µM | TGI [53]: 4 µM | GI50 [54]: 2.45 µM | TGI [54]: > 100 µM | GI50 [55]: 3.47 µM | TGI [55]: 12.6 µM | GI50 [56]: 13.9 µM | TGI [56]: 38.4 µM | GI50 [57]: 2.71 µM | TGI [57]: 8.08 µM
